Results taken from patent US20060014717A1, “Therapeutic compositions for use in prophylaxis or treatment of diarrheas” (priority 2002, published 2006).

How the values were obtained:
[1] = tested on: diarrheagenic Escherichia coli CCUG 38068 (EPEC); test: Chromatogram binding assay of 35S-labeled bacteria to glycosphingolipids on thin-layer plates; conditions: thin-layer chromatograms, TLC overlay
Procedure: (§1) Culture Conditions and Labeling—The E. coli strains were cultured on Luria-agar with the addition of 10 μl ^35S-methionine (400 tici; Amersham Pharmacia Biotech, U.K.) at 37° C. for 12 h. The bacteria were harvested by scraping, washed three times with phosphate-buffered saline (PBS), pH 7.3, and thereafter resuspended in PBS (with or without 1% mannose (w/v)) to 1×10^8 CFU/ml. The specific activities of the suspensions were approximately 1 cpm per 100 bacteria.
(§2) Thin-Layer Chromatography—Thin-layer chromatography of glycosphingolipids was performed on glass- or aluminum-backed silica gel 60 HPTLC plates (Merck, Darmstadt, Germany), using chloroform/methanol/water 60:35:8 (by volume) as solvent system. Chemical detection was done with anisaldehyde (6).
(§3) Glycosphingolipid Binding Assays—Binding of ^35S-labeled bacteria to glycosphingolipids on thin-layer chromatograms was done as reported (7). Dried chromatograms were dipped for 1 min in diethylether/n-hexane (1:5, by volume) containing 0.5% (w/v) polyisobutylmethacrylate (Aldrich Chem. Comp. Inc., Milwaukee, Wis.). After drying, the chromatograms were soaked in PBS containing 2% bovine serum albumin (w/v), 0.1% NaN3 (w/v) and 0.1% Tween 20 (by volume) for 2 h at room temperature. The chromatograms were subsequentely covered with radiolabeled bacteria diluted in PBS (2-5×10^6 cpm/ml). Incubation was done for 2 h at room temperature, followed by repeated washings with PBS. The chromatograms were thereafter autoradiographed using XAR-5 X-ray films (Eastman Kodak, Rochester, N.Y.) for 12 h. Autoradiograms were replicated using a CCD camera (Dage-MTI, Inc., Michigan City, Ind.), and analysis of the images was performed using the public domain NIH Image program (developed at the U.S. National Institutes of Health, and available at http://rsb.info.nih.eov/nih-imaee/).

[2] = tested on: diarrheagenic Escherichia coli CCUG 38077 (EAEC); test: as above; conditions: thin-layer chromatograms, TLC overlay
Procedure: as §1, §2, §3

EPEC strain = conditions: listed in decreasing order of activity; cited from earlier work
diarrheagenic E. coli = test: Inhibition with soluble oligosaccharides in the chromatogram binding assay; set-up: species or system Escherichia coli
Procedure: as §3
The final concentrations of the inhibiting oligosaccharides on the TLC-plate were 0.3 mM. […] Thereafter the chromatogram binding assay was performed as described above.

Row | Compound | Binding of strain CCUG 38068 to glycosphingolipids and neoglycolipids, in words [1] | Binding of strain CCUG 38077 to glycosphingolipids and neoglycolipids, in words [2] | Binding of an EPEC strain to commercial glycolipids (EPEC strain) | further results
1 | CCCCCCCCCCCCCCCCc1ccc(NC[C@H](O)[C@@H](O)[C@H](O[C@@H]2O[C@H](CO)[C@H](O)[C@H](O[C@@H]3O[C@H](CO)[C@@H](O[C@@H]4O[C@H](CO)[C@H](O)[C@H](O[C@@H]5O[C@H](CO)[C@@H](O)[C@H](O)[C@H]5NC(C)=O)[C@H]4O)[C@H](O)[C@H]3NC(C)=O)[C@H]2O)[C@H](O)CO)cc1 [GlcNAcβ3Galβ4GlcNAcβ3Galβ4Glc(red)-HDA] | had binding activity | had binding activity |  | 
2 | CCCCCCCCCCCCCCCCc1ccc(NC[C@H](O)[C@@H](O)[C@H](O[C@@H]2O[C@H](CO[C@@H]3O[C@H](CO)[C@@H](O)[C@H](O)[C@H]3NC(C)=O)[C@H](O)[C@H](O[C@@H]3O[C@H](CO)[C@@H](O)[C@H](O[C@@H]4O[C@H](CO)[C@H](O)[C@H](O)[C@H]4O)[C@H]3NC(C)=O)[C@H]2O)[C@H](O)CO)cc1 [Galβ3GlcNAcβ3(GlcNAcβ6)Galβ4Glc(red)-HDA] | much weaker or non-existent binding activities | much weaker or non-existent binding activities |  | 
3 | GalNAcα3GalNAcβ3Galα4Galβ4Glcβ1Cer [No. 14] |  |  | negative | 
4 | GalNAcβ4Galβ4Glcβ1Cer [No. 10] |  |  | observed to bind | 
5 | CC(=O)N[C@H]1C(O)O[C@H](CO)[C@H](O)[C@@H]1O[C@@H]1O[C@H](CO)[C@H](O)[C@H](O)[C@H]1O (some centres unmarked) [Galβ3GalNAc] |  |  |  | Activity as monovalent inhibitor against the Ganglio-receptor glycolipid (diarrheagenic E. coli; 0.3 mM concentration): not active
6 | CCCCCCCCCCCCCCCCc1ccc(NC[C@@H](O)[C@@H](O[C@H]2O[C@H](CO)[C@@H](O)[C@H](O)[C@@H]2O)[C@H](O)[C@H](O)CO[C@H]2O[C@H](CO)[C@@H](O)[C@H](O)[C@@H]2O)cc1 [Manα3(Manα6)Man(red)-HDA] | had binding activity | had binding activity |  | Binding of strain CCUG 38068 to glycosphingolipids and neoglycolipids, in words ([1]; listed as Manα3(Manα6)Man): bind; Binding of strain CCUG 38077 to glycosphingolipids and neoglycolipids, in words ([2]; listed as Manα3(Manα6)Man): bind
7 | CCCCCCCCCCCCCCCCc1ccc(NC[C@H](O)[C@@H](O)[C@H](O[C@@H]2O[C@H](CO[C@@H]3O[C@H](CO)[C@@H](O[C@@H]4O[C@H](CO)[C@H](O)[C@H](O[C@@H]5O[C@H](CO)[C@@H](O)[C@H](O)[C@H]5NC(C)=O)[C@H]4O)[C@H](O)[C@H]3NC(C)=O)[C@H](O)[C@H](O)[C@H]2O)[C@H](O)CO)cc1 [GlcNAcβ3Galβ4GlcNAcβ6Galβ4Glc(red)HDA, GlcNAcβ3Galβ4GlcNAcβ6Galβ4Glc(red)-HDA] | much weaker or non-existent binding activities | much weaker or non-existent binding activities |  | 
8 | CC(=O)N[C@H]1[C@H](O[C@H]2[C@@H](O)[C@@H](CO)O[C@@H](O[C@H]3[C@H](O)[C@@H](O)C(O)O[C@@H]3CO)[C@@H]2O)O[C@H](CO)[C@@H](O[C@@H]2O[C@H](CO)[C@H](O)[C@H](O)[C@H]2O)[C@@H]1O (mixture of isomers) [Lacto-N-neotetraose, Galβ4GlcNAcβ3Galβ4Glc] |  |  |  | Inhibition of binding to neolacto glycolipid (diarrheagenic E. coli; 0.3 mM final concentration): inhibited binding
9 | CC(=O)N[C@H]1[C@H](O[C@H]2[C@@H](O)[C@@H](CO)O[C@@H](O[C@H]3[C@H](O)[C@@H](O)C(O)O[C@@H]3CO)[C@@H]2O)O[C@H](CO)[C@@H](O)[C@@H]1O[C@@H]1O[C@H](CO)[C@H](O)[C@H](O)[C@H]1O (some centres unmarked) [Lacto-N-tetraose, Galβ3GlcNAcβ3Galβ4Glc] |  |  | observed to bind | Inhibition of binding to lactotetraosylceramide (diarrheagenic E. coli; lowest densities of glycolipids): able to inhibit
10 | Galα4Galβ4Glcβ1Cer [No. 8] |  |  | negative | 
